Experimental data published in ChEMBL document CHEMBL4261494, “Design, synthesis and biological evaluation of novel Schiff base-bridged tetrahydroprotoberberine triazoles as a new type of potential antimicrobial agents” (Medchemcomm, 2017).
≈ marks a conversion by molar mass, not a printed value. Calls of active or inactive are those of the source. No cut-off for these calls is given here.

Tests used:
Staphylococcus aureus [1] = assay type: functional; conditions: ATCC 25923, 24 h
Staphylococcus aureus [2] = assay type: functional; conditions: N315, 24 h
Bacillus spizizenii = assay type: functional; conditions: ATCC 6633, 24 h
Micrococcus luteus = assay type: functional; conditions: ATCC 4698, 24 h
Escherichia coli [3] = assay type: functional; conditions: DH52, 24 h
Shigella dysenteriae = assay type: functional; conditions: 24 h
Pseudomonas aeruginosa = assay type: functional; conditions: ATCC 27853, 24 h
[4] = Aqueous solubility of the compound in pH 7.4 phosphate buffer at 1 mg after 3 hrs by UV absorption analysis; assay type: physicochemical
DNA [5] = assay: Induction of Escherichia coli supercoiled pUC19 DNA cleavage at 0.0125 mM after 16 hrs in absence of Zn2+ by ethidium bromide staining-based agarose gel electrophoresis method; assay type: nucleic-acid assay
Escherichia coli [6] = assay type: functional; conditions: JM109, 24 h
Proteus vulgaris = assay type: functional; conditions: ATCC 13315, 24 h
Cyberlindnera jadinii = assay type: functional; conditions: for MIC: Williopsis jadinii, ATCC 9950, 24 h
Salmonella typhi = assay: microbe, parasite or virus in culture; conditions: Salmonella enterica, 24 h
Staphylococcus aureus [7] = assay: Potency index, ratio of chloromycin MIC to test compound MIC for methicillin-resistant Staphylococcus aureus N315; assay type: functional
Staphylococcus aureus [8] = assay: Potency index, ratio of norfloxacin MIC to test compound MIC for methicillin-resistant Staphylococcus aureus N315; assay type: functional
Candida albicans = assay type: functional; conditions: for MIC: ATCC 10231, 24 h
Kregervanrija fluxuum = assay type: functional
Aspergillus flavus = assay type: functional
Saccharomyces cerevisiae = assay type: functional; conditions: 24 h
Staphylococcus aureus [9] = assay: Bactericidal activity against methicillin-resistant Staphylococcus aureus N315 assessed as log reduction in viable bacterial count at 4 times MIC incubated up to 1 hr followed by replating on yeast-dextrose agar plates and measured after 24 hrs by time kill assay; assay type: functional
Staphylococcus aureus [10] = assay: Antibacterial activity against methicillin-resistant Staphylococcus aureus N315 after 14 passages; assay type: functional, organism-based
Calf thymus DNA [11] = assay: Binding affinity to calf thymus DNA assessed as increase in hypochromic effect up to 2 x 10^-5 mol/L by UV absorption spectral analysis; assay type: nucleic-acid assay; conditions: Bos taurus
Calf thymus DNA [12] = assay: Binding affinity to calf thymus DNA by UV absorption spectral analysis; assay type: nucleic-acid assay; conditions: Bos taurus
Calf thymus DNA [13] = assay: Inhibition of neutral red binding to calf thymus DNA up to 2 x 10^-5 mol/L by UV absorption spectral analysis; assay type: nucleic-acid assay; conditions: Bos taurus
DNA [14] = assay: Induction of Escherichia coli supercoiled pUC19 DNA cleavage at 0.0125 mM after 16 hrs in presence of Zn2+ by ethidium bromide staining-based agarose gel electrophoresis method; assay type: nucleic-acid assay
Albumin [15] = molecular target: T1, Albumin (Homo sapiens, UniProt P02768); assay: Binding affinity to HSA assessed as quenching constant at 288 K by UV-vis absorption spectral analysis; assay type: ADME; conditions: isolated protein
Albumin [16] = molecular target: T1, Albumin; assay: Binding affinity to HSA assessed as quenching constant at 298 K by UV-vis absorption spectral analysis; assay type: ADME; conditions: isolated protein
Albumin [17] = molecular target: T1, Albumin; assay: Binding affinity to HSA assessed as quenching constant at 310 K by UV-vis absorption spectral analysis; assay type: ADME; conditions: isolated protein

T1 sequence (P02768 whole entry): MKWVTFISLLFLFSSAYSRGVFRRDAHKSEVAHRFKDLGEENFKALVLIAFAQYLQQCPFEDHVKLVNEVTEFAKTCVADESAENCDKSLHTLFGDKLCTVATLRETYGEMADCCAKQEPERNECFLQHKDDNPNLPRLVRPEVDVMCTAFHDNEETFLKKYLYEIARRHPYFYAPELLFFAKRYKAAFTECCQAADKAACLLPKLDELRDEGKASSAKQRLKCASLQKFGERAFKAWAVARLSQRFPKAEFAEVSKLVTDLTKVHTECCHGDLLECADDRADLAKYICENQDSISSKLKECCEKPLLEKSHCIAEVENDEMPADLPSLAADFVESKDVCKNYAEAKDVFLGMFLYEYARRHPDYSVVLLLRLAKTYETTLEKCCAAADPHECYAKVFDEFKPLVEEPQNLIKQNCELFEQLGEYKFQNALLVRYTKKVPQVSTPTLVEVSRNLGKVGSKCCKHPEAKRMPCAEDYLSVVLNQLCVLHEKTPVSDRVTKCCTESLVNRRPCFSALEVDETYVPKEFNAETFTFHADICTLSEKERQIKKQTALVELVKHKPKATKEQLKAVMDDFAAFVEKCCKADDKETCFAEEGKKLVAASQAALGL

| Compound | MIC (Staphylococcus aureus [1]) [µg/mL] | MIC (Staphylococcus aureus [2]) [µg/mL] | MIC (Bacillus spizizenii) [µg/mL] | MIC (Micrococcus luteus) [µg/mL] | MIC (Escherichia coli [3]) [µg/mL] | MIC (Shigella dysenteriae) [µg/mL] | MIC (Pseudomonas aeruginosa) [µg/mL] | solubility at 3 h [4] [µg/mL] | MIC (Escherichia coli [6]) [µg/mL] | MIC (Proteus vulgaris) [µg/mL] | MIC (Salmonella typhi) [µg/mL] | also measured |
| --- | --- | --- | --- | --- | --- | --- | --- | --- | --- | --- | --- | --- |
| COc1ccc2cc3[n+](cc2c1OC)CCc1cc2c(cc1-3)OCO2 [BERBERINE] | 512 | 128 | > 512 | > 512 | > 512 | 256 | 256 | 85 |  |  |  | Activity (DNA [5]): inactive |
| COc1cc(/C=N/n2cnnc2)c2c(c1OCc1ccc(Cl)cc1)CN1CCc3cc4c(cc3C1C2)OCO4 (stereo unspecified) | 8 (≈ 14.7 µM) | 32 (≈ 58.8 µM) | 16 (≈ 29.4 µM) | 16 (≈ 29.4 µM) | 32 (≈ 58.8 µM) | 64 (≈ 118 µM) | 4 (≈ 7.35 µM) | 613 (≈ 1130 µM) | 8 (≈ 14.7 µM) | 8 (≈ 14.7 µM) | 8 (≈ 14.7 µM) | MIC (Cyberlindnera jadinii): 0.5 µg/mL (≈ 0.919 µM) |
| COc1cc(/C=N/n2cnnc2)c2c(c1OCc1ccccc1)CN1CCc3cc4c(cc3C1C2)OCO4 (stereo unspecified) | 8 (≈ 15.7 µM) | 2 (≈ 3.92 µM) | 32 (≈ 62.8 µM) | 1 (≈ 1.96 µM) | 16 (≈ 31.4 µM) | 32 (≈ 62.8 µM) | 8 (≈ 15.7 µM) | 178 (≈ 349 µM) | 32 (≈ 62.8 µM) | 16 (≈ 31.4 µM) | 4 (≈ 7.85 µM) | Ratio (Staphylococcus aureus [7]): 8; Ratio (Staphylococcus aureus [8]): 4; MIC (Candida albicans): 0.5 to 32 µg/mL (≈ 0.981 to 62.8 µM); MIC (Kregervanrija fluxuum; ATCC 9888, 24 h): 0.5 to 32 µg/mL (≈ 0.981 to 62.8 µM); MIC (Cyberlindnera jadinii): 0.5 to 32 µg/mL (≈ 0.981 to 62.8 µM); MIC (Aspergillus flavus; ATCC 204304, 24 h): 0.5 to 32 µg/mL (≈ 0.981 to 62.8 µM); MIC (Saccharomyces cerevisiae): 0.5 µg/mL (≈ 0.981 µM); FC (Staphylococcus aureus [9]): >3; Activity (Staphylococcus aureus [10]): Active; Activity (Calf thymus DNA [11]): Active; K (Calf thymus DNA [12]): 2.27 ×10⁴ L/mol; inhibition (Calf thymus DNA [13]): Active; Activity (DNA [5]): inactive; Activity (DNA [14]): Active; Kq (Albumin [15]): 2.55 ×10¹³ L/mol/s; Kq (Albumin [16]): 2.05 ×10¹³ L/mol/s; Kq (Albumin [17]): 1.7 ×10¹³ L/mol/s |
| CCCCCCCCCCCCOc1c(OC)cc(/C=N/n2cnnc2)c2c1CN1CCc3cc4c(cc3C1C2)OCO4 (stereo unspecified) | 256 (≈ 436 µM) | 512 (≈ 871 µM) | 256 (≈ 436 µM) | 512 (≈ 871 µM) | 256 (≈ 436 µM) | 512 (≈ 871 µM) | 512 (≈ 871 µM) | 97 (≈ 165 µM) | 512 (≈ 871 µM) | 256 (≈ 436 µM) | 256 (≈ 436 µM) |  |
| CCCCCCCCCCOc1c(OC)cc(/C=N/n2cnnc2)c2c1CN1CCc3cc4c(cc3C1C2)OCO4 (stereo unspecified) | 32 (≈ 57.2 µM) | 32 (≈ 57.2 µM) | 32 (≈ 57.2 µM) | 64 (≈ 114 µM) | 64 (≈ 114 µM) | 128 (≈ 229 µM) | 128 (≈ 229 µM) |  | 128 (≈ 229 µM) | 64 (≈ 114 µM) | 16 (≈ 28.6 µM) |  |
| CCCCCCCCOc1c(OC)cc(/C=N/n2cnnc2)c2c1CN1CCc3cc4c(cc3C1C2)OCO4 (stereo unspecified) | 8 (≈ 15 µM) | 16 (≈ 30.1 µM) | 16 (≈ 30.1 µM) | 16 (≈ 30.1 µM) | 16 (≈ 30.1 µM) | 64 (≈ 120 µM) | 512 (≈ 963 µM) |  | 32 (≈ 60.2 µM) | 16 (≈ 30.1 µM) | 16 (≈ 30.1 µM) |  |
| COc1cc(/C=N/n2cnnc2)c2c(c1OCc1cccc(F)c1)CN1CCc3cc4c(cc3C1C2)OCO4 (stereo unspecified) | 256 (≈ 485 µM) | 512 (≈ 971 µM) | 512 (≈ 971 µM) | 32 (≈ 60.7 µM) | 256 (≈ 485 µM) | 256 (≈ 485 µM) | 16 (≈ 30.3 µM) |  | > 512 | 64 (≈ 121 µM) | 512 (≈ 971 µM) | MIC (Candida albicans): 0.5 µg/mL (≈ 0.948 µM) |
| COc1cc(/C=N/n2cnnc2)c2c(c1OCc1ccc([N+](=O)[O-])cc1)CN1CCc3cc4c(cc3C1C2)OCO4 (stereo unspecified) | 512 (≈ 923 µM) | 16 (≈ 28.9 µM) | 256 (≈ 462 µM) | 2 (≈ 3.61 µM) | 512 (≈ 923 µM) | 64 (≈ 115 µM) | 64 (≈ 115 µM) |  | 128 (≈ 231 µM) | 512 (≈ 923 µM) | 4 (≈ 7.21 µM) |  |
| COc1cc(/C=N/n2cnnc2)c2c(c1O)CN1CCc3cc4c(cc3C1C2)OCO4 (stereo unspecified) | 64 (≈ 153 µM) | 16 (≈ 38.1 µM) | 512 (≈ 1220 µM) | 1 (≈ 2.38 µM) | 128 (≈ 305 µM) | 256 (≈ 610 µM) | 128 (≈ 305 µM) | 392 (≈ 935 µM) | 128 (≈ 305 µM) | 64 (≈ 153 µM) | 128 (≈ 305 µM) | Activity (Candida albicans; ATCC 10231): inactive; Activity (Kregervanrija fluxuum; ATCC 9888): inactive; Activity (Cyberlindnera jadinii; ATCC 9950): inactive; Activity (Aspergillus flavus; ATCC 204304): inactive |
